What was measured:
Cathepsin B [1] = target: T1, Cathepsin B (Homo sapiens, UniProt P07858); assay: Inhibitory activity against Cathepsin B at a concentration of 10 ng/mL
Cathepsin B [2] = target: T1, Cathepsin B; assay: Inhibitory activity against Cathepsin B at a concentration of 7 ng/mL
Cathepsin B [3] = target: T1, Cathepsin B; conditions: 40 ng/mL
Description: Inhibitory activity against Cathepsin B at a concentration of 40 ng/mL

Cathepsin B [4] = target: T1, Cathepsin B; assay: Inhibitory activity against Cathepsin B at a concentration of 900 ng/mL
Cathepsin B [5] = target: T1, Cathepsin B; assay: Inhibitory activity against Cathepsin B at a concentration of 4 ng/mL
Cathepsin B [6] = target: T1, Cathepsin B; assay: Inhibitory activity against Cathepsin B at a concentration of 400 ng/mL
Cathepsin B [7] = target: T1, Cathepsin B; assay: Inhibitory activity against Cathepsin B at a concentration of 70 ng/mL
Cathepsin B [8] = target: T1, Cathepsin B; assay: Inhibitory activity against Cathepsin B was determined
Cathepsin B [9] = target: T1, Cathepsin B; assay: Inhibitory activity against Cathepsin B at a concentration of 1 ng/mL
Cathepsin B [10] = target: T1, Cathepsin B; assay: Inhibitory activity against Cathepsin B at a concentration of 50 ng/mL
Cathepsin B [11] = target: T1, Cathepsin B; assay: Inhibitory activity against Cathepsin B at a concentration of 200 ng/mL
Cathepsin B [12] = target: T1, Cathepsin B; assay: Inhibitory activity against Cathepsin B at a concentration of 1000 ng/mL

SMILES	inhibition (Cathepsin B [1])	inhibition (Cathepsin B [2])	inhibition (Cathepsin B [3])	inhibition (Cathepsin B [4])	inhibition (Cathepsin B [5])	inhibition (Cathepsin B [6])	inhibition (Cathepsin B [7])	IC50 (Cathepsin B [8])	inhibition (Cathepsin B [9])	inhibition (Cathepsin B [10])	inhibition (Cathepsin B [11])	inhibition (Cathepsin B [12])
CC(C)[C@H](NC(=O)c1ccc(O)cc1)C(=O)N[C@H](C(=O)N[C@H](C=O)CCCN=C(N)N)C(C)C [TOKARAMIDE A]	30%	16%	45%	100%	12%	90%	70%	0.0609 µM	10%			
CC(=O)N[C@@H](CC(C)C)C(=O)N[C@@H](CC(C)C)C(=O)N[C@H](C=O)CCCNC(=N)N [LEUPEPTIN]	55%	35%		100%	25%	100%	82%	0.0216 µM	15%	75%	95%	100%
CC(C)C[C@H](NC(=O)[C@H]1O[C@@H]1C(=O)O)C(=O)NCCCCN=C(N)N [E-64]	75%	52%			29%	100%	95%	0.0137 µM	24%	90%	98%	

From ChEMBL document CHEMBL1131905, “Tokaramide A, a new cathepsin B inhibitor from the marine sponge Theonella aff. mirabilis” (Bioorg Med Chem Lett, 1999)
